# Measurements taken from US20230096028A1, “BICYCLIC HETEROCYCLYL COMPOUNDS AND USES THEREOF” (Revolution Medicines, Inc., priority 2019, published 2023).
# Biological target: T1, SOS1 (Homo sapiens, UniProt Q07889)
# T1 construct: SOS1 (Cytoskeleton Inc., Cat. CS-GE02); purchased Cytoskeleton Inc. CS-GE02
# T1 sequence (Q07889 564-1049 limits assumed): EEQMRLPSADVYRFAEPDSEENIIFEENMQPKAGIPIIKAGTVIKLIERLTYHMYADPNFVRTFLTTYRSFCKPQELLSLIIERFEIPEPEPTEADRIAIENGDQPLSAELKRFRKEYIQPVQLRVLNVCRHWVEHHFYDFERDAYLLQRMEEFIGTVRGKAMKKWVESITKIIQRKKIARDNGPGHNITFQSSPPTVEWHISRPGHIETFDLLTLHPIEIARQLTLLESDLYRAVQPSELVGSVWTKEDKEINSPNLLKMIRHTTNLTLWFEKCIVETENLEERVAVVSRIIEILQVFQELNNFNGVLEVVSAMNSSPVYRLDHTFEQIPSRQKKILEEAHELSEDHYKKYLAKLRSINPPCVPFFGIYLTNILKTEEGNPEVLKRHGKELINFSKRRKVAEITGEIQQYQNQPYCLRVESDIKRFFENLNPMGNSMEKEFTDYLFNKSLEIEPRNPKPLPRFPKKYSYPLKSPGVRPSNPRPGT
# Test: Bodipy-FL-GTP Association Assay (SOS1-mediated exchange of KRAS-4B:GDP to KRAS-4B:GTP)
# Format: biochemical
# Details: SOS1-mediated BODIPY FL GTP exchange on KRAS-4B, 22° C.
# Description: A low IC50 value for a given compound is indicative of high potency of said compound in inhibiting the guanine nucleotide exchange factor (GEF) activity of SOS1 on KRAS-4B in this assay setting.
# Reagents: BODIPY FL GTP (ThermoFisher Scientific, Cat. G12411); KRAS4-B (Cytoskeleton Inc., Cat. CSRS03); SOS1 (Cytoskeleton Inc., Cat. CS-GE02); 2×Assay Buffer: 40 mM Tris-HCl, pH 7.5; 100 mM NaCl; 20 mM MgCl2; 0.1 mg/mL BSA; 0.02% NP-40
# Assay Procedure: Test compounds were dissolved in DMSO to create 20 mM master stocks. The stocks were diluted in a 3× dilution series in 100% DMSO to achieve 100× compound stocks. A 1 μl spot of each test compound stock was delivered to two adjacent wells of a 96-well assay plate prior to running the assay. Reaction Mix preparation: The following were mixed in order at room temperature to obtain the “Reaction Mix” (5.75 mL 2× Exchange Buffer; 3.22 mL MilliQ ddH2O; 3 μL 5 mM BODIPY FL GTP; 230 μL 50 μM KRAS-4B; 9.203 mL Total volume. Reaction initiation: 80 μL of Reaction Mix was pipetted into each well of a half-area black 96-well plate (Corning, Cat. 3686) containing either a 1 μL spot of DMSO or a 1 μL spot test compound at the concentrations listed above. 20 μL of 1 μM SOS1 was then added to each well to initiate the reaction. For the no GEF control wells this was replaced with 1× exchange buffer. Kinetic measurement: The reaction was monitored in a SpectraMax M2 Microplate Reader (Molecular Devices) under the following protocol: 5 second rapid circular mixing before first read; 61 readings, 30 seconds apart; Assay temperature: 22° C.; Excitation wavelength: 485 nm; Emission wavelength: 513 nm. Data Analysis: The Vmax values for the SOS1-mediated BODIPY FL GTP exchange curves in the presence of test compounds were normalized to the most dilute test sample columns or DMSO only control wells to give the % Activity for each concentration of test compound. Plots of % Activity vs. the Log 10 of the compound concentration were fit by non-linear regression to a 4-parameter logistic model.
row,Structure (SMILES),IC50
1,"C[C@@H](Nc1nc(Cl)nc2c1CCN(C(=O)C1CCOC1)CC2)c1cc(N)cc(C(F)(F)F)c1 (stereo partly drawn) [Example 7, N-[(1R)-1-[3-amino-5-(trifluoromethyl)phenyl]ethyl]-2-chloro-7-(oxolane-3-carbonyl)-5H,6H,7H,8H,9H-pyrimido[4,5-d]azepin-4-amine]",1 to 5 µM
2,Cc1nc2c(c(N[C@H](C)c3cc(N)cc(C(F)(F)F)c3)n1)CN(C(=O)C1CCN(C)CC1)C2 [Example 21],< 1 µM
3,"C[C@@H](Nc1nc(Cl)nc2c1CN(C(=O)C1CCOC1)C2)c1cc(N)cc(C(F)(F)F)c1 (stereo partly drawn) [Example 5, N-[(1R)-1-[3-amino-5-(trifluoromethyl)phenyl]ethyl]-2-chloro-6-(oxolane-3-carbonyl)-5H,6H,7H-pyrrolo[3,4-d]pyrimidin-4-amine]",< 1 µM
4,C[C@@H](Nc1nc(Cl)nc2c1CN(C(=O)C1CCN(C)CC1)C2)c1cc(N)cc(C(F)(F)F)c1 [Example 18],< 1 µM
5,C[C@@H](Nc1nc(Cl)nc2c1CCN(CC1CCOC1)CC2)c1cc(N)cc(C(F)(F)F)c1 (some centres unmarked) [Example 11],1 to 5 µM
6,"C[C@@H](Nc1nc(Cl)nc2c1CN(C(=O)N1CCOCC1)CC2)c1cc(N)cc(C(F)(F)F)c1 [Example 3, N-[(1R)-1-[3-amino-5-(trifluoromethyl)phenyl]ethyl]-2-chloro-6-(morpholine-4-carbonyl)-5H,6H,7H,8H-pyrido[4,3-d]pyrimidin-4-amine]",< 1 µM

# Now from value to compound:
row,IC50,Structure (SMILES)
1,< 1 µM,"Cc1nc2c(c(N[C@H](C)c3cc(N)cc(C(F)(F)F)c3)n1)CN(C(=O)N1CCOCC1)C2 [Example 4, N-[(1R)-1-[3-amino-5-(trifluoromethyl)phenyl]ethyl]-2-methyl-6-(morpholine-4-carbonyl)-5H,6H,7H-pyrrolo[3,4-d]pyrimidin-4-amine]"
2,< 1 µM,Cc1nc2c(c(N[C@H](C)c3cc(N)cc(C(F)(F)F)c3)n1)CN(CC1CCOC1)CC2 (some centres unmarked) [Example 12]
3,< 1 µM,C[C@@H](Nc1ncnc2c1CN(C(=O)N1CCOCC1)C2)c1cc(N)cc(C(F)(F)F)c1 [Example 16]
4,< 1 µM,C[C@@H](Nc1ncnc2c1CN(C(=O)C1CCN(C)CC1)C2)c1cc(N)cc(C(F)(F)F)c1 [Example 17]
5,1 to 5 µM,C[C@@H](Nc1nc(O)nc2c1CN(C(=O)N1CCOCC1)C2)c1cc(N)cc(C(F)(F)F)c1 [Example 15]
6,1 to 5 µM,"C[C@@H](Nc1nc(Cl)nc2c1CN([C@H]1CC[C@@H](C(=O)N(C)C)CC1)C2)c1cc(N)cc(C(F)(F)F)c1 [Example 10, cis-4-(4-{[(1R)-1-[3-amino-5-(trifluoromethyl)phenyl]ethyl]amino}-2-chloro-5H,6H,7H-pyrrolo[3,4-d]pyrimidin-6-yl)-N,N-dimethylcyclohexane-1-carboxamide]"
7,1 to 5 µM,"Cc1nc2c(c(N[C@H](C)c3cc(N)cc(C(F)(F)F)c3)n1)CN(C(=O)N1CCOCC1)CC2 [Example 2, N-[(1R)-1-[3-amino-5-(trifluoromethyl)phenyl]ethyl]-2-methyl-6-(morpholine-4-carbonyl)-5H,6H,7H,8H-pyrido[4,3-d]pyrimidin-4-amine]"
8,> 5 µM,"C[C@@H](Nc1nc(Cl)nc2c1CN([C@H]1CC[C@H](O)CC1)C2)c1cc(N)cc(C(F)(F)F)c1 [Example 9, trans-4-(4-{[(1R)-1-[3-amino-5-(trifluoromethyl)phenyl]ethyl]amino}-2-chloro-5H,6H,7H-pyrrolo[3,4-d]pyrimidin-6-yl)cyclohexan-1-ol]"
9,1 to 5 µM,"Cc1nc2c(c(N[C@H](C)c3cc(N)cc(C(F)(F)F)c3)n1)CN(C(=O)[C@H]1CCOC1)CC2 [Example 6, N-[(1R)-1-[3-amino-5-(trifluoromethyl)phenyl]ethyl]-2-methyl-6-(oxolane-3-carbonyl)-5H,6H,7H,8H-pyrido[4,3-d]pyrimidin-4-amine]"

# Test system: NCI-H358 xenograft
# Test: In vivo tumor cell growth, NSCLC NCI-H358 xenograft model
# Design: species or system female balb/c athymic nude mice
# Details: 10 mg/kg, repeated daily dosing, single agent
# Description: Objective: To evaluate the efficacy of the SOS1 inhibitor Compound A alone and in combination with a KRAS G12C inhibitor MRTX1257 following oral administration in the human non-small cell lung cancer (NSCLC) NCI-H358 xenograft model in nude mice.
# Methods: The effect of a SOS1 inhibitor of the present invention (Compound A) on tumor cell growth in vivo was evaluated in the NSCLC NCI-H358 xenograft model using female balb/c athymic nude mice (6-8 weeks old). Mice were implanted with H358 tumor cells in 50% matrigel (5^e6 cells/mouse) subcutaneously in the flank. Once tumors reached an average size of ˜200 mm^3, mice were randomized to treatment groups and administration of test article or vehicle (2% HPMC, 0.1% tween in 50 mM sodium citrate buffer pH 4). Body weight and tumor volume (using digital calipers) were measured twice a week until study endpoints. Compounds were administered by oral gavage daily.
row,Structure (SMILES),"tumor growth inhibition, TGI"
1,C=CC(=O)N1CCN(c2nc(OC[C@@H]3CCCN3C)nc3c2CCN(c2cccc4cccc(C)c24)C3)C[C@@H]1CC#N [MRTX1257],76%

# Same assay, conditions: 50 mg/kg, H358 model
row,Structure (SMILES),tumor response
1,C=CC(=O)N1CCN(c2nc(OC[C@@H]3CCCN3C)nc3c2CCN(c2cccc4cccc(C)c24)C3)C[C@@H]1CC#N [MRTX1257],achieved regressions
